Experimental data reported in ChEMBL document CHEMBL1122713, “Isomeric N-methyl-7-deazaguanines: synthesis, structural assignment, and inhibitory activity on xanthine oxidase” (J Med Chem, 1984).

Molecular target: Xanthine dehydrogenase/oxidase (Bos taurus, UniProt P80457)
Assay: Compound is evaluated for competitive inhibition against xanthine oxidase from cow's milk

Chain of Xanthine dehydrogenase/oxidase (P80457 whole entry): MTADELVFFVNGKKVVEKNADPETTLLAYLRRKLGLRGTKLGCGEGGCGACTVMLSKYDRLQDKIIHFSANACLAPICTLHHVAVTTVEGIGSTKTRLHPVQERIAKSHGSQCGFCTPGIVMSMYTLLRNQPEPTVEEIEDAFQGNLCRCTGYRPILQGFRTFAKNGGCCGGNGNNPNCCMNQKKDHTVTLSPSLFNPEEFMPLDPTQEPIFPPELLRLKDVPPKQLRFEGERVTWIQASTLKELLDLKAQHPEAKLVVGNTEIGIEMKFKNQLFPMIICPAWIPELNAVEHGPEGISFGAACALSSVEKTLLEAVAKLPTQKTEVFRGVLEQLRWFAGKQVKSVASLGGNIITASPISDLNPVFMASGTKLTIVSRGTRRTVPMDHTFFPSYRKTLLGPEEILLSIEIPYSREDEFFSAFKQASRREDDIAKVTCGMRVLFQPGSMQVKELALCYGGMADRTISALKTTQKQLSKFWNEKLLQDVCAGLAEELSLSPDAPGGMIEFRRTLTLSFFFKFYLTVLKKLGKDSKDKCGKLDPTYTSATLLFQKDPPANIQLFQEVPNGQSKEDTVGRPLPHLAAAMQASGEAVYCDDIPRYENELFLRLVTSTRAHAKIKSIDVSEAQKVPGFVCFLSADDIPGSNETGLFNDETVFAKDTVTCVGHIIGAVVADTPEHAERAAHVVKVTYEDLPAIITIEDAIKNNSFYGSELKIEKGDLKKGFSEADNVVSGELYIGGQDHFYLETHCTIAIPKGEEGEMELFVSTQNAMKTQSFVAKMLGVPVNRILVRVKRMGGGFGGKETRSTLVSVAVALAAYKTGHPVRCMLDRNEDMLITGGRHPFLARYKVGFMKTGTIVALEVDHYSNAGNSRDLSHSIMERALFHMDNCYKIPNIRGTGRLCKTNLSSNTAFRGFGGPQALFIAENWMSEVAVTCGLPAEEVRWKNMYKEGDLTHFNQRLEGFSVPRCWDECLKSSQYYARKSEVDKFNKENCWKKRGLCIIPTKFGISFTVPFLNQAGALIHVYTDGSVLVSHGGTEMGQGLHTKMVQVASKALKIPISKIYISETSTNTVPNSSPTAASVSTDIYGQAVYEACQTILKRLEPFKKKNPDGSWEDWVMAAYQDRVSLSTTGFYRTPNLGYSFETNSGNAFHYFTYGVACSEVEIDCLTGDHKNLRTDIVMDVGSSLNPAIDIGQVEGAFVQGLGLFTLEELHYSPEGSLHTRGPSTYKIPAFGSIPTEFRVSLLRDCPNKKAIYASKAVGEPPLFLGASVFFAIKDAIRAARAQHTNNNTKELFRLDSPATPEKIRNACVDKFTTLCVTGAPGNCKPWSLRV

Row | SMILES | Ki
1 | Nc1nc2c(c(=O)[nH]1)CC=N2 [7-DEAZAGUANINE] | 3 µM
2 | Cn1c(N)nc2nccc-2c1O | 40 µM
3 | Cn1c(N)nc(O)c2ccnc1-2 | 4.5 µM
4 | Cn1ccc2c(=O)[nH]c(N)nc21 | 3 µM
